# Test results as given in patent US5654296A, “Condensed heterocyclic compounds, their production and use” (priority 1994, dated 1997).
# Counter-ions that a name gives are not always drawn.
# Tests used:
# Type in all cases: biochemical
# [1] = system: norepinephrine (NE) uptake; assay: Activity to inhibit norepinephrine (NE) uptake; conditions: rat cerebral cortex; 3H-NE; read-out: NE uptake inhibitory activity (IC50 μM)
# Protocol: (§1) The experiment was performed in accordance with the method of Hyttel et al. [Psychopharmacology 60, 13, 1978]. The whole brain of a rat was homogenized in 40 volumes of ice-cooled 0.32M sucrose solution containing 10 μM pargyline and, then, centrifuged (600×G) for 10 minutes. The supernatant was centrifuged (2500×G) for 55 minutes to provide a pellet. This pellet was suspended in Krebs-Ringer-phosphate buffer (pH 7.4; 122 mM NaCl, 4.82 mM KCl, 0.972 mM CaCl2, 1.21 mM MgSO4, 12.7 mM Na2 HPO4, 2.97 mM NaH2 PO4, 0.162 mM EDTA sodium, 10 mM glucose, 1.14 mM ascorbic acid) saturated with a mixed gas (95% O and 5% CO2). To 900 μl of this suspention was added a solution of the test drug (10 μl) in DMSO and the mixture was incubated at 37° C. for 5 minutes. Then, 100 μl of ^3 H-5-HT (final concentration 10 nM) was added and the mixture was further incubated at 37° C. for 5 minutes. This reaction mixture was filtered under suction using a GF/B filter and the filter was washed with 4 ml of the above-mentioned buffer. The radioactivity on the filter was measured by the liquid scintillation method.
# (b) Activity to inhibit norepinephrine (NE) uptake
# Using the rat cerebral cortex and, as the substrate, ^3 H-NE, an experiment was performed by otherwise the same procedure as described for 5-HT.
# [2] = system: 45Ca2+ uptake (veratrine-stimulated, rat cerebral cortex crude synaptosome fraction); assay: 45Ca2+ uptake inhibition experiment; conditions: 30 μM veratrine, 37° C., 10 minutes, read-out: 45Ca2+ uptake inhibitory activity (IC50 μM)
# Protocol: The rat cerebral cortex was homogenized in 10 volumes of ice-cooled 0.32M sucrose solution to prepare a crude synaptosome fraction (100×G, 10 min., 12000×G, 20 min.). […] To 900 μl of the homogenate was added a DMSO solution of the test drug (10 μl). The mixture was incubated at 37° C. for 10 minutes, followed by addition of 100 μl of a veratrine solution (containing 0.18 uci ^45 Ca^2+) at a final veratrine concentration of 30 μM. The mixture was incubated at 37° C. for 10 minutes, quenched with 4 ml of ice-cooled EGTA solution (120 mM sodium chloride, 5 mM potassium chloride, 5 mM EGTA, pH=7.5) and suction-filtered using a GF/B filter. The filter was washed twice with 4 ml each of a washing solution (132 mM sodium chloride, 5 mM potassium chloride, 1.3 mM magnesium chloride, 1.2 mM calcium, chloride, 20 mM Tris base, pH 7.5) and the radioactivity of […] was measured by the liquid scintillation method.
# The ^45 Ca^2+ uptake inhibition rate was calculated by means of the following equation. [formula] A: The ^45 Ca^2+ uptake after 10 minutes' stimulation with 30 μM veratrine in the presence of the test drug
# B: The ^45 Ca^2+ uptake in the absence of veratrine and in the presence of the test drug
# C: The ^45 Ca^2+ uptake after 10 minutes' stimulation with 30 μM veratrine in the absence of the test drug
# D: The ^45 Ca^2+ uptake in the absence of the test drug and in the absence of veratrine
# serotonine (5-HT) uptake = assay: Activity to inhibit serotonine (5-HT) uptake; conditions: rat whole brain; 3H-5-HT 10 nM; 37° C.; pH 7.4; read-out: 5-HT uptake inhibitory activity (IC50 μM)
# Protocol: (a) Activity to inhibit serotonine (5-HT) uptake
# as §1
# The amount of the drug which caused a 50% decrease in 5-HT uptake is shown as 50% inhibitory activity (IC50) in Table 42.
Compound,IC50 [1],IC50 [2],IC50 (serotonine (5-HT) uptake)
"c1ccc(C2(CCN3CCCCC34CCc3ccccc3C4)COCc3ccccc32)cc1 (stereo not drawn) [Example I-12, 3,4-Dihydro-1'-[2-(4-phenylisochroman-4-yl)ethyl]spiro[naphthalene-2(1H),2'-piperidine] hydrochloride]",0.015 µM,0.85 µM,0.022 µM
"c1ccc(C2CCN(CCCC3(c4ccccc4)COCc4ccccc43)CC2)cc1 (stereo not drawn) [Example I-33, 4-[3-(4.-Phenylpiperidino)propyl]-4-phenylisochroman hydrochloride]",0.55 µM,0.69 µM,0.27 µM
"COc1cccc(NC(=O)N2Cc3ccccc3C(CCN3CCN(c4ccc(F)cc4)CC3)(c3ccccc3)C2)c1 (stereo not drawn) [IV-20, 1,2,3,4-Tetrahydro-4-{2-[4-(p-fluorophenyl)piperazin-1-yl]ethyl}-2-(3-methoxyphenyl)carbamoyl-4-phenylisoquinoline hydrochloride]",0.12 µM,0.17 µM,0.03 µM
"COc1ccc(CCNCCCC2(c3ccccc3)COCc3ccccc32)cc1OC (stereo not drawn) [Example I-25, 4-[3-(3,4-Dimethoxyphenethylamino)propyl]-4-phenylisochroman hydrochloride]",0.39 µM,1.19 µM,0.14 µM
"Fc1ccc(N2CCN(CCCC3(c4ccccc4)COCc4ccccc43)CC2)cc1 (stereo not drawn) [Example I-30, 4-{3-[4-(p-Fluorophenyl)piperazin-1-yl]propyl}-4-phenylisochroman dihydrochloride]",0.59 µM,1.59 µM,0.068 µM
"CN(CCCC1(c2ccccc2)CN(C(=O)Nc2ccccc2)Cc2ccccc21)Cc1ccccc1 (stereo not drawn) [IV-19, 4-[3-(N-Benzyl-N-methylamino)propyl]-4-phenyl-2-phenylcarbamoyl-1,2,3,4-tetrahydroisoquinoline hydrochloride]",0.56 µM,0.95 µM,0.23 µM
